Assay [1] deals with T1, Calpain-1 catalytic subunit (Homo sapiens, UniProt P07384).
T1 sequence (P07384 whole entry): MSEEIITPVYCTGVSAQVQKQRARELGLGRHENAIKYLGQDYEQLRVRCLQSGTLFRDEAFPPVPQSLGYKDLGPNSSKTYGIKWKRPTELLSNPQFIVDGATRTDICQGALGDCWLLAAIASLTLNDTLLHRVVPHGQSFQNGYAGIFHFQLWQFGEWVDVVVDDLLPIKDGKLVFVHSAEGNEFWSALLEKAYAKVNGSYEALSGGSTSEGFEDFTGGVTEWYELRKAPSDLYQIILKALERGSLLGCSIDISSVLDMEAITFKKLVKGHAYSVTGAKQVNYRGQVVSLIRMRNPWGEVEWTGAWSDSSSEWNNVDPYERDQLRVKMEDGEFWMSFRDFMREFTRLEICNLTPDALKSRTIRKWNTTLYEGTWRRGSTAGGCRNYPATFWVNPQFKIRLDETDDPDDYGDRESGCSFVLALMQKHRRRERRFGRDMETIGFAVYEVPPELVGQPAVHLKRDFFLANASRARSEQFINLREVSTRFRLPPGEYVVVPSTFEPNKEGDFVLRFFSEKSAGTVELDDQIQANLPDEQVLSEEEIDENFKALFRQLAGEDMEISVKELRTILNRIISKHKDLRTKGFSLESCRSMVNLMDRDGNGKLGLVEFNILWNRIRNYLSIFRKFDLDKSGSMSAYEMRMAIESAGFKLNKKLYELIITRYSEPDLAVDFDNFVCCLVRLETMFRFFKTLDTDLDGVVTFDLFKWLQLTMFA
Description: Inhibitory activity against on human calpain 1.

The species named for assay [2] is Rattus norvegicus. Description: Ability to inhibit [Fe2+] induced lipid peroxidation (LPO) in rat brain microsomes. In kind it is functional.
For assay [3], the system named is C6. Description: Protection against C6 glial cell death induced by maitotoxin. Format: functional, cell-based. To be noted: Rattus norvegicus.
Assay [4] has as its system C6. The assay is described as follows: Protection against C6 glial cell death induced by maitotoxin at 100 uM concentration. Format: functional. To be noted: Rattus norvegicus.
For assay [5], the target named is T1, Calpain-1 catalytic subunit. The assay is described as follows: Inhibitory activity against on human calpain 1; Not active.
Assay [6] shares this target. The assay is described as follows: Inhibitory activity against on calpain in C6 glial cells; Not active. Format: functional, cell-based, Rattus norvegicus.

Consider `Cc1c(C)c2c(c(C)c1O)CCC(C)(C(=O)N[C@@H](CC(C)C)C(=O)N[C@H]1CCOC1O)O2` (some centres not stated), for which the figures for the IC50 in assay [1] and in assay [2] were 147 nM and 1700 nM, respectively.

For `CC(C)C[C@H](NC(=O)c1cccc2c1Nc1ccccc1S2)C(=O)N[C@H]1CCOC1O` (some centres not stated), the results for the IC50 in assay [1] and in assay [2] were 82 nM and 3600 nM, respectively.

For the compound `CC(=O)OC1OCC[C@@H]1NC(=O)[C@H](CC(C)C)NC(=O)c1ccc2c(c1)Nc1ccccc1S2` (some centres not stated), in assay [3], the IC50 (in general, the concentration at which inhibition is half-maximal) was found to be 15500 nM.

With `CC(C)C[C@H](NC(=O)c1ccc2c(c1)Nc1ccccc1S2)C(=O)N[C@H]1CCOC1O` (some centres not stated), the IC50 stood at 38500 nM in assay [3], 22.5 nM in assay [1] and 70 nM in assay [2].

Consider `Cc1cc(C(C)(C)C)c(O)c(C(C)(C)C)c1` [BUTYLATED HYDROXYTOLUENE], for which, in assay [4], testing at 100 µM gave an inhibition of 21%. For the same compound, the IC50 entry in assay [5] was “Not Active”; in assay [6], “Not Active”; in assay [2], 3250 nM.

The values are drawn from ChEMBL document CHEMBL1146815, “Novel dual inhibitors of calpain and lipid peroxidation” (Bioorg Med Chem Lett, 2004).
